Patent US20180135022A1, “METHOD FOR PRODUCING ARTIFICIAL SYNCYTIOTROPHOBLAST AND PROGENITOR CELL THEREOF” (Sumitomo Chemical Company, Limited, priority 2015, published 2018)
Like-named read-outs stand apart in the source and are kept apart here.

Experiments:
[1] = test system: cell layer of cells differentiated from KhES-1 cells; details: human, 120 min
Description: (§1) After two days from the seeding to the cell culture insert, the electric resistance (Ω) of the cell layer formed on the cell culture insert was measured by using a Millicell ERS-2 (Millipore), and from the obtained measurement value, the electric resistance of the blank in which cells are not seeded was subtracted, and the resultant value was multiplied with the area of the membrane filter (cm^2) to determine a transepithelial electric resistance (TEER, Ω·cm^2).
(§2) The culture medium in the insert and in the multiple well plate was replaced by Hanks' Balanced Salt Solution (HBSS) (no phenol red, Life Technologies), and incubated for 30 minutes to 45 minutes at 37° C. 5% CO2. The culture medium in the insert (apical side) is replaced by HBSS containing a test substance, and cultured at 37° C. under stirring at 300 rpm.
(§3) After 120 minutes from addition of the test substance, 100 μl of HBSS containing the permeated test substance was collected from inside the multiple well plate, and the same amount of HBSS was added to the collected HBSS. By quantifying the test substance in the culture medium in the multiple well plate by LC-MS, the permeability of the test substance in the cell layer was evaluated. A value obtained by dividing the permeation amount of each test substance by the permeation amount of antipyrine is shown as an in vitro relative permeation amount in Table 4.

[2] = test system: cell layer of cells differentiated from 201B7 cells; details: human, 120 min
Description: (§4) The culture medium in the insert and in the multiple well plate was replaced by Hanks' Balanced Salt Solution (HBSS) (no phenol red, Life Technologies), and incubated for 30 minutes to 45 minutes at 37° C. […] The culture medium in the insert (apical side) is replaced by HBSS containing a test substance, and cultured at 37° C. under stirring at 300 rpm.
(§5) After 120 minutes from addition of the test substance, 100 μl of HBSS containing the test substance was collected from inside the multiple well plate, and the same amount of HBSS was added to the collected HBSS. By quantifying the test substance in the culture medium in the multiple well plate by LC-MS, the permeability of the test substance in the cell layer was evaluated. A value obtained by dividing the permeation amount of each test substance by the permeation amount of antipyrine is shown as an in vitro relative permeation amount in Table 5.

term placenta = details: cited from earlier work
[3] = test system: cell layer of cells differentiated from KhES-1 cells; test: Cell layer permeability test on cell culture insert, cells differentiated from human ES cells, Example 13; details: permeation amount after 120 minutes divided by that of antipyrine; apical side dosing, HBSS, LC-MS; cells from KhES-1
Description: as §1, §2, §3

[4] = test system: cell layer of cells differentiated from 201B7 cells; test: Cell layer permeability test on cell culture insert, cells differentiated from human iPS cells, Example 15; details: permeation amount after 120 minutes divided by that of antipyrine; apical side dosing, HBSS, LC-MS; cells from iPS line 201B7
Description: as §4, §5

[5] = test system: GCM1-GFP knock-in human ES cells; test: Percentage of GFP positive cells (GCM1 gene expression) after differentiation culturing, Example 2; type: cell-based; details: day 6
Description: S26948, GW 1929, CGP 7930 and SR 11237 were dissolved in DMSO so that they were respectively 1 mM, and retinoic acid was dissolved in DMSO so that it was 10 mM, and each DMSO solution was added to Basal differentiation medium A.
On day 6 of the culturing using the differentiation medium, cells were washed twice with PBS (Invitrogen), and fixed with 4% paraformaldehyde (Wako) for 15 minutes. After subjecting the cells to a membrane permeabilizing treatment for 5 minutes by using PBS supplemented with 0.3% Triton X-100 (Wako), the cells were washed three times with PBS. Then after blocking the cells for 1 hour to 2 hours with 3% Bovine Serum Albumin (BSA, Sigma-Aldrich), the cells were immunostained by using 5 μg/ml chicken anti-GFP antibody (Abcam), 2 μg/ml goat anti-chicken IgG antibody Alexa 488 (Life technologies) and 1 μg/ml Hoechst 33342 (DOJINDO). For the obtained stained sample, the percentage of the GFP positive cells indicating expression of GCM1 gene was quantified by using a fully automatic image analyzer Arrayscan (Thermo Scientific).

KhES-1 cells = test: Syncytin gene mRNA by real-time PCR after differentiation culturing, Example 3; type: cell-based, human; details: single agent added to Basal differentiation medium B (0.1 μM S26948, 10 μM GW 1929, 0.1 μM CGP 7930, 10 nM SR 11237 or 1 nM retinoic acid), day 5; in comparison with Control
Description: According to the method described in (1) in Example 2, KhES-1 cells were maintenance cultured, and then subjected to the MEF removing operation. […] S26948, GW 1929, CGP 7930 and SR 11237 were dissolved in DMSO so that they were respectively 100 mM, and retinoic acid was dissolved in DMSO so that it was 10 mM, and each DMSO solution was added to Basal differentiation medium B.
On day 5 of the culturing of the culture using the differentiation medium, total RNA was extracted from cells by using RNeasy Micro Kit (QIAGEN). The obtained total RNA was reverse transcribed by using SuperScript III (Invitrogen), and by real-time PCR using the obtained DNA as a template, TaqMan probe (Applied biosystems) and TaqMan Fast advanced master mix (Applied biosystems), the expression amount of Syncytin gene which is a marker gene of syncytiotrophoblast was examined. For the cells obtained in each culturing, the mRNA amount of Syncytin gene and the mRNA amount of GAPDH gene which is a house keeping gene were determined by real-time PCR. The value obtained by dividing the mRNA amount of Syncytin gene by the mRNA amount of GAPDH gene is defined as a correction value of mRNA amount of Syncytin gene, and taking the Syncytin gene mRNA amount correction value in cells cultured in Basal differentiation medium B (Control) as 1, a Syncytin gene mRNA amount correction value in cells cultured in each of other culture media was shown as a relative expression amount. The operation from the cell culturing to measurement of mRNA amount was repeated three times. In FIG. 2, a standard error of relative expression amount is indicated by an error bar. The relative expression amount having a statistically significant difference with respect to the relative expression amount of Control is marked with asterisks (** means a P value of 0.001 or more and less than 0.01, and *** means a P value of less than 0.001). In comparison with the cells cultured in Basal differentiation medium B (Control), the relative expression amount of Syncytin gene increased in cells that were cultured in a differentiation medium supplemented with either of S26948 (2-1) or GW 1929 (2-2) that is a PPARγ agonist, CGP 7930 (2-3) that is a GABABR positive allosteric modulator, SR 11237 (2-4) that is an RXR agonist or retinoic acid (2-5) that is an RAR agonist.

[6] = test system: GCM1-GFP knock-in human ES cells; test: Percentage of GFP positive cells at different retinoic acid concentrations, Example 9; type: cell-based; details: day 5
[7] = Table 4, excerpted from Li, H. et al. Arch. Toxicol. 2013
[8] = Table 5, excerpted from Li, H. et al. Arch. Toxicol. 2013
[9] = 1 μM added to Basal differentiation medium A (3 ng/ml BMP4), in comparison with Control A (0.1% DMSO)

| SMILES | In vitro relative permeation amount [1] | Ex vivo relative permeation amount (literature value) (term placenta; [7]) | increase in the percentage of the GFP positive cells [5, 9] | relative expression amount of Syncytin gene (KhES-1 cells) | further results |
| --- | --- | --- | --- | --- | --- |
| Cn1c(=O)c2c(ncn2C)n(C)c1=O [Caffeine] | 1.4 | 1.5 | – | – | In vitro relative permeation amount [2]: 1.1; Ex vivo relative permeation amount (literature value) (term placenta; [8]): 1.5 |
| COc1ccc2c(c1)c(CC(=O)O)c(C)n2C(=O)c1ccc(Cl)cc1 [Indomethacin] | – | 0.66 | – | – | Ex vivo relative permeation amount (literature value) (term placenta; [8]): 0.66; In vitro relative permeation amount [3]: 0.72; In vitro relative permeation amount [4]: 0.62 |
| COC(=O)C(Cc1ccc(OCCn2c(=O)sc3cc(C(=O)c4ccccc4)ccc32)cc1)C(=O)OC [S26948] | – | – | about 20% | increased | – |
| CC(C)(CO)Cc1cc(C(C)(C)C)c(O)c(C(C)(C)C)c1 [CGP 7930] | – | – | about 20% | increased | – |
| CN(CCOc1ccc(C[C@H](Nc2ccccc2C(=O)c2ccccc2)C(=O)O)cc1)c1ccccn1 [GW 1929] | – | – | about 20% | increased | – |
| CC1=C(/C=C/C(C)=C/C=C/C(C)=C/C(=O)O)C(C)(C)CCC1 [retinoic acid] | – | – | – | – | increase in the percentage of the GFP positive cells ([5]; 1 nM retinoic acid (Table 1 prints 1 μM) in Basal differentiation medium A, compared with Control B (no retinoic acid)): about 6%; increase in the percentage of GFP positive cells ([6]; 1 nM or 10 nM retinoic acid in Basal differentiation medium B, compared with Control without retinoic acid): about 10%; decrease in the percentage of GFP positive cells ([6]; 100 nM or more retinoic acid in Basal differentiation medium B, compared with Control): ≥ 10% |
| Cc1cc(=O)n(-c2ccccc2)n1C [Antipyrine] | 1 | – | – | – | In vitro relative permeation amount [2]: 1; Ex vivo relative permeation amount (literature value) (term placenta): 1 |
| C[C@H]1O[C@@H](O[C@H]2[C@@H](O)C[C@H](O[C@H]3[C@@H](O)C[C@H](O[C@H]4CC[C@@]5(C)[C@H](CC[C@@H]6[C@@H]5C[C@@H](O)[C@]5(C)[C@@H](C7=CC(=O)OC7)CC[C@]65O)C4)O[C@@H]3C)O[C@@H]2C)C[C@H](O)[C@@H]1O [Digoxin] | 0.24 | 0.13 | – | – | – |
| CC1(C)CCC(C)(C)c2cc(C3(c4ccc(C(=O)O)cc4)OCCO3)ccc21 [SR 11237] | – | – | about 20% | increased | – |
